Source: paper PMC9238271, “The quorum sensing peptide EntF* promotes colorectal cancer metastasis in mice: a new factor in the host-microbiome interaction” (BMC Biology, 2022)

Legend:
[1] = test system: tumor nodules in the liver; assay: Orthotopic mouse model: histopathological evaluation of liver; format: in vivo, female athymic nude mice (Swiss nu/nu)
Method: Six-week-old female athymic nude mice (Swiss nu/nu) were anesthetized, and a minimally invasive midline laparotomy was performed to localize the cecum. The cecum was then gently pulled out, and luciferase-transfected HCT-8/E11 cells (1 × 10^6 cells) in 20 μL serum-free DMEM medium with Matrigel (1:1) were injected into the cecal wall. Before implantation, cells were treated with EntF* (10^2 nM), Phr0662 (10^2 nM), vehicle (PBS), or TGFα positive control (0.1 μg mL^−1) solutions for 5 days. The cecum was then carefully placed back into the abdominal cavity and the surgical incision was closed with two layers of sutures with PDS 6-0. […] Once a week, mice were examined for tumor growth and metastases using bioluminescent imaging with the IVIS Lumina II (Perkin Elmer, Belgium) after i.p. injection with 200 μL luciferin (150 mg kg^−1). After 6 weeks, mice were euthanized using cervical dislocation, and the liver, diaphragm, lungs, cecum, duodenum, and peritoneum were macroscopically examined for the presence of tumor nodules. Liver and lung tissues were then fixed in formalin for 24 h and stored in 70% ethanol for maximum 3 days before embedding in paraffin. Next, a hematoxylin and eosin (H&E) staining was performed on 8 μm sections, and 3 sections per mouse were visualized using microscopy. Slides from tumor-bearing mice were analyzed by two blinded, independent investigators using the scoring system described in Additional file 5: Table S3. In case of differences, slides were scored by a third blinded, independent investigator for consensus.

[2] = EntF production in germ-free mice: EntF* in colon content and serum; format: in vivo, germ-free female C57BL6 mice
Method: Fifty microliters of serum were mixed with 150 μL 0.5% formic acid in acetonitrile. After sonication for 5 min, samples were vortexed for 5 s, then heated for 30 s at 100 °C. The solution was vortexed and centrifuged for 20 min at 20,000g at 4 °C. The supernatant was purified using solid phase extraction (SPE) on HyperSep C18 plates (Thermo Fisher Scientific, Belgium), previously conditioned with acetonitrile and equilibrated with 75% acetonitrile in water, containing 0.375% formic acid. After loading 150 μL of each sample, 120 μL eluent were collected and organic solvents evaporated using nitrogen (1 L/min) for 5 min. The resulting samples were further diluted with 30 μL of BSA-based anti-adsorption solution, and analyzed by LC-MS.
For EntF and EntF* colon content analysis, 50 mg of colon content were suspended in 100 μL of a 2% hydrochloric acid solution, vortexed and sonicated for 30 s. The suspension was centrifuged for 1 min at 3000g, and 50 μL of the supernatant was heated at 100 °C for 1 min and cooled on ice for 1 min. Samples were centrifuged again for 1 min at 10,000g, and 30 μL of supernatant was added to a 900 μL of a 3% DMSO solution in acetonitrile acidified with 0.1% formic acid (equilibration solution). Nine hundred microliters of the diluted samples was loaded on a HILIC amide SPE MonoSpin column previously conditioned with acetonitrile and equilibrated with the equilibration solution. Samples were eluted using a mixture of 75/20/5 (V/V/V) H2O/acetonitrile/DMSO acidified with 0.1% formic acid.
EntF* was detected and quantified on a Waters Acquity® UPLC H-class system, connected to a Waters Xevo™ TQ-S triple quadrupole mass spectrometer with electrospray ionization (operated in positive ionization mode). Autosampler tray and column oven were kept at 10 ± 5 °C and 60 ± 5 °C, respectively. Chromatographic separation was achieved on a Waters Acquity® UPLC BEH Peptide C18 column (300 Å, 1.7 μm, 2.1 mm × 100 mm). The mobile phases consisted of 93/2/5 water/acetonitrile/DMSO (V/V/V) containing 0.1% formic acid (mobile phase A) and 2/93/5 water/acetonitrile/DMSO (V/V/V) containing 0.1% formic acid (mobile phase B), and the flow rate was set to 0.5 mL/min. A 10-μL aliquot from each sample was injected. The gradient program started with 80% of mobile phase A for 1 min, followed by a linear gradient to 40% of mobile phase A for 3.5 min. Gradient was then changed to 14.2% mobile phase A at 5 min, followed by a 1 min equilibration, before starting conditions were applied. EntF* retention time was between 4.25 and 4.45 min.
Mice were obtained from the Ghent Germfree and Gnotobiotic mouse facility (LA1400637), maintained in a sterile environment under controlled conditions (light–dark cycle with light from 7:00 h to 17:00 h, temperature 21–25 °C, and humidity 45–65%). Twelve germ-free female C57BL6 mice were divided into 3 groups and each group (n = 4) was kept in a separate cage. At day 0, the placebo group was treated with the cell medium (BHI), the control group received a mixture of 3 EntF-negative E. faecium strains (NCIMB 10415; W54 and LMG S-28935 each 10^8 CFU per strain) suspended in 300 μL of BHI, while the test group received a mixture of 3 EntF-producing E. faecium strains (LMG 23236; T-110 and ATCC 8459 each 10^8 CFU/strain) suspended in 300 μL of BHI. […] Serum samples were stored at − 80 °C and subsequently analyzed for the presence of EntF* using LC1-MS1. […] Samples were further analyzed for the presence of EntF* using LC1-MS1.

With CC(C)C[C@@H]1NC(=O)[C@H](CO)NC(=O)[C@H](Cc2ccccc2)NC(=O)[C@H](C(C)C)NC(=O)[C@@H](NC(=O)[C@H](CCC(=O)O)NC(=O)[C@@H](NC(=O)[C@H](CC(C)C)NC(=O)[C@H](CC(N)=O)NC(=O)[C@@H](N)CO)C(C)C)CSSC[C@@H](C(=O)N[C@@H](CC(N)=O)C(=O)O)NC(=O)[C@H](CCCCN)NC(=O)[C@H](CCCCN)NC(=O)[C@H](Cc2ccccc2)NC1=O (single isomer, unassigned) [EntF*] the “number of tumor nodules in the liver compared to the vehicle” value ([1]; 6 weeks of treatment, H&E histopathological score, n = 30 EntF*, n = 8 PBS) was “significantly higher number of tumor nodules”, the “Histology scoring LIVER, conclusion per group” value ([1]; per group) was 1 and the tissue level at time molar at 96 h ([2]; female, C57BL6, mouse, colon content, germ-free mice four days after oral gavage of 3 EntF-producing E. faecium strains (10^8 CFU/strain), LoD 1.9 pmol/g, LC1-MS1, mean ± SEM, n = 4, read-out: EntF* concentration in colon content) was 0.01 ± 0.0032 nmol/g. The “EntF* in serum of the test group” value ([2]; germ-free mice four days after oral gavage of EntF-producing E. faecium strains, LC1-MS1) was “detected”, the “EntF* in feces, Tot. Av.” value ([2]; gnotobiotic mice, feces, mean of 4 test mice) was 9.726 pmol/g and the “EntF* serum concentration, Maximum Likelihood Function estimate ^µ” value ([2]; gnotobiotic mice, serum, 4 test mice, censored at yL 80 pM) was 90.7384 pM. The “EntF* serum concentration, average” value ([2]; gnotobiotic mice, serum, average of the 3 test mice above LoD) was 97.3333 pM.
